PubChem BioAssay AID1963986 (Molecular Pharmacology Branch, DTP, NCI, 2024)

Test system: 171881-019-R-J1-PDC tumor spheroid viability
Assay: Anticancer human tumor 171881-019-R-J1-PDC patient-derived invasive breast carcinoma cell line growth inhibition [PI3K]
Conditions: spheroids with HUVEC and MSC; for IC50: curve of first compound; for viability, T/C: stronger effect = lower value
From the text: Combinatorial screen of targeted agents with the PI3K inhibitors inavolisib, alpelisib, duvelisib, and copanlisib in multi-cell type tumor spheroids
A high-throughput screen of multi-cell type tumor spheroids was designed to identify active combinations of targeted small molecules and PI3K pathway inhibitors. Complex spheroids include a stromal component modeled by human endothelial cells (HUVEC) and fibroblasts modeled by human mesenchymal stem cells (MSCs). The concentration ranges selected for each drug and investigational agent were based upon clinically achievable concentrations if the clinical Cmax of the agent was known.
Compounds. The drugs and investigational agents: inavolisib (NSC800729), alpelisib (NSC765974), duvelisib (NSC772469), copanlisib (NSC816437), ipatasertib (NSC767898), afuresertib (NSC778305), talazoparib (NSC767125), sapanisertib (NSC764658), selumetinib (NSC741078), tovorafenib (DAY101, NSC766906), vemurafenib (NSC761431), ravoxertinib (NSC781343), sotorasib (NSC818433), MRTX1133 (NSC 836407), abemaciclib (NSC 768073), palbociclib (NSC758247), venetoclax (NSC 766270), SY5609 (NSC837396), enzalutamide (NSC755605), and darolutamide (NSC825331), were obtained from the National Cancer Institute (NCI) Developmental Therapeutics Program Chemical Repository. The FDA-approved anticancer drug set is available from the NCI Developmental Therapeutics Program. […] The stock solutions were prepared in dimethyl sulfoxide (DMSO, Sigma-Aldrich, St. Louis, MO, cat. D2650) at 800-fold the tested concentration and stored at -70 degrees C prior to their use. All drugs and investigational agents were tested over a range starting from a high concentration at or near the clinical Cmax and decreasing in half-log increments. If the clinical Cmax for an agent had not been determined, the highest concentration tested was 10 microM.
Cell Culture. All cells were maintained in an incubator at 37 degrees C and 5% CO2 with 95% humidity. The PDC lines were cultured according to standard operating procedures established by the NCI PDMR (https://pdmr.cancer.gov/sops/default.htm). All PDCs were thawed and cultured in Matrigel-coated flasks prepared with a working solution of 1X Ham's F-12 nutrient mix, without supplementation (Invitrogen, Waltham, MA, cat. 11765054), 100 U/mL penicillin-streptomycin (Invitrogen, cat. 15140122), and 2.5% Matrigel (Corning Inc., Corning, NY, cat. 354248) for the first three passages. The 354836-022-R-J1-PDC, 475296-252-R-J1-PDC, and 997726-040-R-J2-PDC lines were cultured in 6A media, which includes advanced DMEM/F-12 (Thermo Fisher Scientific, cat. 12634028), 10 mM HEPES (Thermo Fisher Scientific, cat. 15630080), 1X GlutaMAX supplement (Thermo Fisher Scientific, cat. 35050061), 0.1 mg/mL primocin (InvivoGen, San Diego, CA, cat. ant-pm-2), 10% defined fetal bovine serum, heat inactivated (HyClone Laboratories Inc., Logan, UT, cat. SH30070.03HI), 50% L-WRN conditioned media (ATCC, cat. CRL-3276), 1.25 mM N-Acetyl-L-cysteine (Sigma-Aldrich, cat. A9165), 10 mM nicotinamide (Sigma-Aldrich, cat. N0636), 1X B-27 supplement (Thermo Fisher Scientific, cat. 17504044), 1X N-2 supplement (Thermo Fisher Scientific, cat. 17502048), and 10 microM Y-27632 dihydrochloride (Tocris Bioscience, Bristol, United Kingdom, cat. 1254). The 624824-186-R-J2-PDC line was cultured in 6C/Colon 1B media, which includes all 6A media components plus 50 ng/mL human EGF recombinant protein (Thermo Fisher Scientific, cat. PHG0311). […]

[1] = second compound 0.00316 µM, first compound 0.0316 µM
[2] = second compound 0.00316 µM, first compound 0.1 µM
[3] = second compound 0.01 µM, first compound 0.0316 µM
[4] = second compound 0.01 µM, first compound 0.1 µM
[5] = second compound 0.0316 µM, first compound 0.0316 µM
[6] = second compound 0.0316 µM, first compound 0.1 µM
[7] = second compound 0.1 µM, first compound 0.0316 µM
[8] = second compound 0.1 µM, first compound 0.1 µM
[9] = second compound 0.316 µM, first compound 0.0316 µM
[10] = second compound 0.316 µM, first compound 0.1 µM
[11] = second compound 1 µM, first compound 0.0316 µM
[12] = second compound 1 µM, first compound 0.1 µM
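Further: spheroids exposed to compound for 7 days before viability read.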
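Wherever viability, T/C is given: 100% = DMSO vehicle-treated spheroids.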

Question: For `CC(=O)c1c(C)c2cnc(Nc3ccc(N4CCNCC4)cn3)nc2n(C2CCCC2)c1=O` + CC(Nc1ccc2c(c1)OCCn1cc(N3C(=O)OCC3C(F)F)nc1-2)C(N)=O, which IC50 (second compound 0.00316 µM) is on record?
Answer: > 100 nM

Question: What about the IC50 (second compound 0.01 µM) of the same molecule?
Answer: > 100 nM

Question: What about the IC50 (second compound 0.0316 µM) of the same molecule?
Answer: > 100 nM

Question: What about the IC50 (second compound 0.1 µM) of the same molecule?
Answer: < 0.316 nM

Question: What about the IC50 (second compound 0.316 µM) of the same molecule?
Answer: < 0.316 nM

Question: And the IC50 (second compound 1 µM)?
Answer: < 0.316 nM

Question: What about the viability, T/C (second compound 0.00316 µM, first compound 0.000316 µM) of the same molecule?
Answer: 85.7%

Question: What about the viability, T/C (second compound 0.00316 µM, first compound 0.001 µM) of the same molecule?
Answer: 85.3%

Question: What about the viability, T/C (second compound 0.00316 µM, first compound 0.00316 µM) of the same molecule?
Answer: 94.5%

Question: What about the viability, T/C (second compound 0.00316 µM, first compound 0.01 µM) of the same molecule?
Answer: 95.2%

Question: And the viability, T/C [1]?
Answer: 100%

Question: And the viability, T/C [2]?
Answer: 86.7%

Question: And the viability, T/C (second compound 0.01 µM, first compound 0.000316 µM)?
Answer: 74.2%

Question: What about the viability, T/C (second compound 0.01 µM, first compound 0.001 µM) of the same molecule?
Answer: 82.3%

Question: What about the viability, T/C (second compound 0.01 µM, first compound 0.00316 µM) of the same molecule?
Answer: 78.5%

Question: What about the viability, T/C (second compound 0.01 µM, first compound 0.01 µM) of the same molecule?
Answer: 85.9%

Question: And the viability, T/C [3]?
Answer: 89.2%

Question: And the viability, T/C [4]?
Answer: 73%

Question: What about the viability, T/C (second compound 0.0316 µM, first compound 0.000316 µM) of the same molecule?
Answer: 50.3%

Question: And the viability, T/C (second compound 0.0316 µM, first compound 0.001 µM)?
Answer: 58.7%

Question: What about the viability, T/C (second compound 0.0316 µM, first compound 0.00316 µM) of the same molecule?
Answer: 53.9%

Question: What about the viability, T/C (second compound 0.0316 µM, first compound 0.01 µM) of the same molecule?
Answer: 49.1%

Question: What about the viability, T/C [5] of the same molecule?
Answer: 64.5%

Question: What about the viability, T/C [6] of the same molecule?
Answer: 58.6%

Question: And the viability, T/C (second compound 0.1 µM, first compound 0.000316 µM)?
Answer: 40.4%

Question: And the viability, T/C (second compound 0.1 µM, first compound 0.001 µM)?
Answer: 42.6%

Question: What about the viability, T/C (second compound 0.1 µM, first compound 0.00316 µM) of the same molecule?
Answer: 42%

Question: And the viability, T/C (second compound 0.1 µM, first compound 0.01 µM)?
Answer: 44.3%

Question: What about the viability, T/C [7] of the same molecule?
Answer: 47.7%

Question: What about the viability, T/C [8] of the same molecule?
Answer: 42.1%

Question: What about the viability, T/C (second compound 0.316 µM, first compound 0.000316 µM) of the same molecule?
Answer: 26.7%

Question: And the viability, T/C (second compound 0.316 µM, first compound 0.001 µM)?
Answer: 27%

Question: And the viability, T/C (second compound 0.316 µM, first compound 0.00316 µM)?
Answer: 28%

Question: What about the viability, T/C (second compound 0.316 µM, first compound 0.01 µM) of the same molecule?
Answer: 28%

Question: And the viability, T/C [9]?
Answer: 30.8%

Question: And the viability, T/C [10]?
Answer: 29%

Question: And the viability, T/C (second compound 1 µM, first compound 0.000316 µM)?
Answer: 20.4%

Question: And the viability, T/C (second compound 1 µM, first compound 0.001 µM)?
Answer: 20.4%

Question: And the viability, T/C (second compound 1 µM, first compound 0.00316 µM)?
Answer: 24.1%

Question: What about the viability, T/C (second compound 1 µM, first compound 0.01 µM) of the same molecule?
Answer: 24.2%

Question: What about the viability, T/C [11] of the same molecule?
Answer: 27.8%

Question: And the viability, T/C [12]?
Answer: 25.9%

Question: For `CNC(=O)c1ccc(N2C(=S)N(c3ccc(C#N)c(C(F)(F)F)c3)C(=O)C2(C)C)cc1F` + CC(Nc1ccc2c(c1)OCCn1cc(N3C(=O)OCC3C(F)F)nc1-2)C(N)=O, which IC50 (second compound 0.00316 µM) is on record?
Answer: > 10000 nM

Question: What about the IC50 (second compound 0.01 µM) of the same molecule?
Answer: > 10000 nM

Question: What about the IC50 (second compound 0.0316 µM) of the same molecule?
Answer: 3830 nM

Question: And the IC50 (second compound 0.1 µM)?
Answer: < 31.6 nM

Question: What about the IC50 (second compound 0.316 µM) of the same molecule?
Answer: < 31.6 nM

Question: What about the IC50 (second compound 1 µM) of the same molecule?
Answer: < 31.6 nM

Question: And the viability, T/C [1]?
Answer: 82.6%

Question: What about the viability, T/C [2] of the same molecule?
Answer: 88%

Question: And the viability, T/C (second compound 0.00316 µM, first compound 0.316 µM)?
Answer: 82.4%

Question: What about the viability, T/C (second compound 0.00316 µM, first compound 1 µM) of the same molecule?
Answer: 93.6%

Question: And the viability, T/C (second compound 0.00316 µM, first compound 3.16 µM)?
Answer: 81%

Question: What about the viability, T/C (second compound 0.00316 µM, first compound 10 µM) of the same molecule?
Answer: 69.5%

Question: And the viability, T/C [3]?
Answer: 75.1%

Question: And the viability, T/C [4]?
Answer: 73.8%

Question: And the viability, T/C (second compound 0.01 µM, first compound 0.316 µM)?
Answer: 77%

Question: What about the viability, T/C (second compound 0.01 µM, first compound 1 µM) of the same molecule?
Answer: 74.5%

Question: And the viability, T/C (second compound 0.01 µM, first compound 3.16 µM)?
Answer: 78.3%

Question: And the viability, T/C (second compound 0.01 µM, first compound 10 µM)?
Answer: 62.3%

Question: What about the viability, T/C [5] of the same molecule?
Answer: 55.2%

Question: What about the viability, T/C [6] of the same molecule?
Answer: 56.7%

Question: What about the viability, T/C (second compound 0.0316 µM, first compound 0.316 µM) of the same molecule?
Answer: 57%

Question: What about the viability, T/C (second compound 0.0316 µM, first compound 1 µM) of the same molecule?
Answer: 56.6%

Question: And the viability, T/C (second compound 0.0316 µM, first compound 3.16 µM)?
Answer: 53.1%

Question: And the viability, T/C (second compound 0.0316 µM, first compound 10 µM)?
Answer: 33.8%

Question: What about the viability, T/C [7] of the same molecule?
Answer: 39.1%

Question: And the viability, T/C [8]?
Answer: 41.5%

Question: What about the viability, T/C (second compound 0.1 µM, first compound 0.316 µM) of the same molecule?
Answer: 38.1%

Question: And the viability, T/C (second compound 0.1 µM, first compound 1 µM)?
Answer: 39.9%

Question: And the viability, T/C (second compound 0.1 µM, first compound 3.16 µM)?
Answer: 38%

Question: And the viability, T/C (second compound 0.1 µM, first compound 10 µM)?
Answer: 30.5%

Question: And the viability, T/C [9]?
Answer: 28.2%

Question: And the viability, T/C [10]?
Answer: 27.9%

Question: And the viability, T/C (second compound 0.316 µM, first compound 0.316 µM)?
Answer: 25.2%

Question: And the viability, T/C (second compound 0.316 µM, first compound 1 µM)?
Answer: 28.5%

Question: What about the viability, T/C (second compound 0.316 µM, first compound 3.16 µM) of the same molecule?
Answer: 24.8%

Question: What about the viability, T/C (second compound 0.316 µM, first compound 10 µM) of the same molecule?
Answer: 22.1%

Question: And the viability, T/C [11]?
Answer: 20.8%

Question: What about the viability, T/C [12] of the same molecule?
Answer: 21.3%

Question: What about the viability, T/C (second compound 1 µM, first compound 0.316 µM) of the same molecule?
Answer: 24.9%

Question: And the viability, T/C (second compound 1 µM, first compound 1 µM)?
Answer: 18.5%

Question: And the viability, T/C (second compound 1 µM, first compound 3.16 µM)?
Answer: 20.1%

Question: What about the viability, T/C (second compound 1 µM, first compound 10 µM) of the same molecule?
Answer: 18.7%
